In the assay the target is AChE enzyme from Electrophorus electricus (electric eel) (Electrophorus electricus, UniProt O42275). Kind of assay: In vitro AChE inhibition, Ellman spectrophotometric procedure. Format: biochemical. The conditions noted are these: for IC50: IC50 against AChE, dose dependent assay, 412 nm; for inhibition at 100 µM: read-out: AChE inhibition, mean of R1-R3. Background: In Ellman's method for cholinesterases, released thiocholine reacts with DTNB.

From publication PMC10637926 (Heliyon, 2023) come the findings set out here.

Chain of AChE enzyme from Electrophorus electricus (electric eel) (O42275 24-633): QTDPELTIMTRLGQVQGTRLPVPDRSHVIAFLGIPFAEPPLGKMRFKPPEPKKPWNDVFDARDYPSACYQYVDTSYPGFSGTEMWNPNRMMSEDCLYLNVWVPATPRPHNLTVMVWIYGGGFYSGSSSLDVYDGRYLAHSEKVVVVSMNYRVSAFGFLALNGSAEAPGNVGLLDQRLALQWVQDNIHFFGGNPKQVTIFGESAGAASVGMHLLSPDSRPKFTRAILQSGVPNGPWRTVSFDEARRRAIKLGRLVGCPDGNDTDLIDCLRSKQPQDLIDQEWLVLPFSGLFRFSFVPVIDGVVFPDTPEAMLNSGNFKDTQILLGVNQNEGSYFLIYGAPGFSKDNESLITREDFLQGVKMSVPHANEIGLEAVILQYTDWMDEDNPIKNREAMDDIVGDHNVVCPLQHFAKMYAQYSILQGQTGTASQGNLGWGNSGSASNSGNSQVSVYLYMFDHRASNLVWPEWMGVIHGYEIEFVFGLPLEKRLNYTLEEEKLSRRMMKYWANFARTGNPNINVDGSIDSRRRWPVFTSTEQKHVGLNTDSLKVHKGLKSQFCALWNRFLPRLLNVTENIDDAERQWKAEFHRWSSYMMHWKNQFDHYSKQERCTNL

For the compound `O=c1cc(-c2ccc(O)cc2)oc2cc(O)cc(O)c12` [Apigenin], the IC50 – broadly, the concentration at which inhibition is half-maximal – worked out at 13.8 µM and the inhibition (in general, how much of the control response was suppressed) at 100 µM was determined as 80%. `COc1c(O)cc(O)c2c(=O)cc(-c3ccccc3)oc12` [Wogonin]: the IC50 stood at 15.5 µM and the inhibition at 100 µM stood at 80.3%. `O=c1c(O)c(-c2ccc(O)c(O)c2)oc2cc(O)cc(O)c12` [Quercetin]: the inhibition at 100 µM came to 85.7%.
